# Reference: patent publication US9155784B2, “Anti-TNF-α therapy for the mucopolysaccharidoses and other lysosomal disorders” (Icahn School of Medicine at Mount Sinai, priority 2011, dated 2015)
# Key:
# Type in all cases: in vivo, rat
# TNF-α and RANKL = assay: Serum immunoassays of TNF-α and RANKL in treated MPS VI rats; conditions: MPS VI rats treated 8 months i.v., end of study (37 weeks), vs untreated MPS VI
# Description: Naglazyme® (recombinant human N-acetylgalactosamine-4-sulfatase) was obtained from the BioMarin Pharmaceutical Inc., and CNTO1081 was from Centocor Ortho Biotech Inc. Twenty one-day-old (pre-symptomatic) MPS VI rats were divided into two groups (n=8/group), and subjected to either ERT or combined ERT/anti-TNF-α therapy. Animals receiving ERT alone were injected i.v. (tail vein) weekly with 1 mg/kg of Naglazyme®. Those receiving combined therapy also were injected i.v. with 3 mg/kg of CNTO10181 twice per week (every third day). Treatment was carried out for a total of 32 weeks. Serum was collected every 2 weeks for TNF-α and RANKL analysis (see infra). For each group, the treated animals were sacrificed 2 weeks after the last injection (37 weeks of age). Age-matched normal and untreated MPS VI rats were used as controls throughout the study.
# Serum TNF-α and RANKL in age-matched normal, untreated and treated MPS VI rats were assessed by immunoassays using rat ultrasensitive Biosource Elisa kits (Invitrogen and ALPCO Diagnostics) according to the manufacturers' protocols. All assays were performed in triplicate.
# Twenty one-day-old MPS VI rats were treated by either ERT (1 mg/kg once per week), or by a combined protocol of ERT and anti-TNF-α therapy (3 mg/kg, twice per week). Both were administered intravenously (tail vein). […]
# MPS VI rats [1] = assay: Accelerating rotarod (locomotor function), MPS VI rats, ERT and combined treatment; conditions: 10 RPM, maximum time 180 seconds; untreated MPS VI mean 70 seconds
# Source text: Age-matched 37-week-old normal and untreated MPS VI and treated MPS VI rats were placed on an accelerating Rotarod series 8 (IITC Life Science) for evaluation as described previously (Cotugno et al., “Different Serum Enzyme Levels are Required to Rescue the Various Systemic Features of the Mucopolysaccharidoses,” Hum. Gene Ther. 21:555-69 (2010), which is hereby incorporated by reference in its entirety). Animals were primed on the rod for two consecutive days prior to the actual recording. The rotarod was set at increasing speeds from 10 to 30 rpm over 3 minutes, and an average of the latency to fall off from the rod was recorded. Results were analyzed by one-way analysis of variance (ANOVA) with the variable group.
# MPS VI rats [2] = assay: Gait (motility) analysis from paw prints, MPS VI rats
# Description: The fore and hind paws of treated and control animals were stained with two different colors using non-toxic dye. The rats were trained to walk through a tunnel for two consecutive days, leaving their paw prints on blotting paper. On the third day several parameters were measured; distance between the left and right front paws in the longitudinal direction, the angle that was formed, and the distance between the front and hind right paws. For statistical analysis, group differences were assessed using multivariate analyses of variance (MANOVAs), followed by post hoc Bonferroni adjustments for all time points tested.
# MPS VI rats [3] = assay: Trachea measurements and gross morphology, MPS VI rats
# Description: Limb and trachea measurements were taken at the end of the study (37 weeks of age). The length of each femur was measured from the microCT images using the Microview software. The greater trochanter was used as the proximal margin of the femur, whereas the extent of the distal condyles was considered the distal margin. Thus, the length of each femur was computed roughly along the vertical axis of the bone. For validation, the physical femora and tibia lengths, as well as the width of the tracheas, was measured with a digital caliper. The mean of the two treatment groups (ERT and combined ERT/CNTO1081) were compared using standard student t test analysis.
# ceramide = assay: Trachea ceramide immunohistochemistry, MPS VI rats; conditions: 37 weeks of age
# Description: Tracheas from 37-week-old normal, untreated MPS VI and treated MPS VI rats were fixed, embedded, sectioned, and prepared as described above. Sections were incubated overnight with primary mouse monoclonal anti-ceramide antibody (MID 15B4, Alexis Corporation) and visualization was accomplished using a fluorescent secondary antibody, donkey anti-goat IgG-Cy-3 (711-165-152, Jackson Laboratory). Slides were visualized and photographed with a confocal laser-scanning microscope (Carl Zeiss 510 Meta).
# articular chondrocytes = assay: Immunoblot of articular chondrocytes from treated MPS VI rats; conditions: western blot, vs untreated MPS VI
# Source text: Tracheas, femora, and tibias were collected from the control and treated MPS VI rats, and placed in either phosphate buffered saline for the isolation of fibroblast-like synoviocytes (FLS) and articular chondrocytes, or fixed in neutral buffered 10% formalin (Sigma Chemical) for histology, microCT analysis, and immunohistochemistry (see infra). The fixed bones were decalcified in 8% formic acid (Sigma Chemical) for 5 days, paraffin embedded, and sectioned (5 μm) for subsequent staining Primary FLS and articular chondrocyte cultures were established as previously described (Simonaro et al., “Joint and Bone Disease in Mucopolysaccharidosis VI and VII: Identification of New Therapeutic Targets and Biomarkers Using Animal Models,” Pediatr. Res. 57:701-707 (2005); Simonaro et al., “Mechanism of Glycosaminoglycan-Mediated Bone & Joint Disease: Implications for the Mucopolysaccharidoses & Other Connective Tissue Diseases,” Amer. J. Path. 172:112-122 (2008), both of which are hereby incorporated by reference in their entirety), and expression of inflammatory and apoptosis markers were assessed by western blotting.
# Articular chondrocytes from 37-week-old normal, untreated and treated MPS VI rats were collected using sequential enzyme digestion of cartilage, pelleted and lysed for immunoblot analysis as previously described (Simonaro et al., “Mechanism of Glycosaminoglycan-Mediated Bone & Joint Disease: Implications for the Mucopolysaccharidoses & Other Connective Tissue Diseases,” Amer. J. Path. 172:112-122 (2008), which is hereby incorporated by reference in its entirety). The membranes were incubated with rabbit polyclonal anti-collagen type IIA1 (sc-8784-R, Santa Cruz Biotechnology), rabbit polyclonal anti-collagen type X (AB58632, Abcam), rabbit polyclonal anti-ADAMTS5 (sc-28887, Santa Cruz Biotechnology), rabbit polyclonal anti-PARP (sc-7150, Santa Cruz Biotechnology), and rabbit polyclonal anti-GAPDH (sc-25778, Santa Cruz Biotechnology), as a loading control. The bound antibodies were recognized by secondary antibodies conjugated to HRP (NA934V), GE Healthcare). […]
substance,measurement,setting,value
recombinant human N-acetylgalactosamine-4-sulfatase [ERT],serum RANKL level,TNF-α and RANKL,significantly reduced
same,serum TNF-α level,TNF-α and RANKL,significantly reduced
same,time on the rotating bar,MPS VI rats [1],180 s
same,distance for the front paw per step,MPS VI rats [2]; untreated MPS VI 2.8 cm,4.2 cm
same,distance the animals moved their rear paws,MPS VI rats [2]; untreated MPS VI 4.9 cm,not changed
same,angle of the hind paw movement,MPS VI rats [2]; untreated MPS VI 60°,45 °
same,"tracheal abnormalities (thickened, collapsed tracheas), gross inspection",MPS VI rats [3]; 37 weeks of age,not altered
same,trachea cross-sectional area,"MPS VI rats [3]; 37 weeks, untreated 2.9±0.6, normal 7.5±0.8",3.6±0.5 mm^2
same,ceramide staining in tracheal epithelial cells,ceramide,strong ceramide staining
same,ADAMTS5 expression in articular chondrocytes,articular chondrocytes,reduced
same,PARP (apoptosis marker) expression in articular chondrocytes,articular chondrocytes,only reduced by the combined treatment protocol
same,collagen X expression in articular chondrocytes,articular chondrocytes,increased
